The values below come from US4806564A, “Antihypercholesterolemic beta-lactones” (Merck & Co., Inc., priority 1987, dated 1989).

The assay concerns the target T1, HMG-CoA synthase (Rattus norvegicus, UniProt P17425).
T1 construct: The HMG-CoA synthase was eluted from the column with 0.1 M phosphate buffer (pH 7.2); from tissue; host or cells: liver of male Charles River CD rats
T1 sequence (P17425 1-520): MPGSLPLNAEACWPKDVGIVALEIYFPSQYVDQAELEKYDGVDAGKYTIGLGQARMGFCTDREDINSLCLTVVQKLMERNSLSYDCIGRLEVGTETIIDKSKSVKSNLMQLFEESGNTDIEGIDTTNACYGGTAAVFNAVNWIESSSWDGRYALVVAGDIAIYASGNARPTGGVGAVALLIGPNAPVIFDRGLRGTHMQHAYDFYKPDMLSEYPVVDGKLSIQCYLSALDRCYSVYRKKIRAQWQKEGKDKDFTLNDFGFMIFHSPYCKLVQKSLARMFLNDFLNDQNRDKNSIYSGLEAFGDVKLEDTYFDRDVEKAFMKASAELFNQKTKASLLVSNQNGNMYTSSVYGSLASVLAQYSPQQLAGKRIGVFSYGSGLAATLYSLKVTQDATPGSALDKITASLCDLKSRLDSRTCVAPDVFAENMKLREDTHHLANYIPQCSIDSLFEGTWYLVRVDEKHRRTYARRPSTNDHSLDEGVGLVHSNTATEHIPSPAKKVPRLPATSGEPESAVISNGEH
Briefly: HMG-CoA Synthase Inhibition Assay. The following applies: in vitro; HMG-CoA synthase purified from rat liver; 5 min preincubation with test compound at 30°, then 10 min with acetoacetyl-CoA and [14C]-acetyl-CoA. In kind it is biochemical. As to the method:
The intrinsic HMG-CoA synthase inhibition activity of the compounds of this invention is measured by the standard in vitro protocol described below:
The livers from male Charles River CD rats (225-350 g) were homogenized in 0.25 M sucrose which was adjusted with phenylmethylsulfonylfluoride (PMSF) and N-p-tosyl-1-lysine chloromethyl ketone (TLCK) so that the final concentration of each was […], respectively. The homogenate was centrifuged at 15,000× g for 20 minutes, the supernatant filtered through a fine nylon screen to remove most of the fat layer and recentrifuged at 100,000× g for 1 hour. This supernatant was removed and 1 M potassium phosphate, dithiothreitol (DTT) and ethylene glycol-bis(β-aminoethyl ether)-N,N,N',N'-tetracetic acid (EGTA) added to give a final concentration of 0.1 M (pH 7.2), 0.5 mM and 0.1 mM, respectively. Solid ammonium sulfate was added to 50% saturation to the protein solution, it was centrifuged at 15,000× g and the supernatant discarded. This precipitated protein could be stored at -70° C. for at least one month with very little loss of activity. The ammonium sulfate precipitate was dissolved in an minimal mount of 0.06 M potassium phosphate buffer (pH 7.2) containing 0.5 mM dithiothreitol and 0.1 mM EGTA (referred to as 0.06 M phosphate buffer) and dialyzed overnight against 2 liters of the same buffer to remove the ammonium sulfate and to inactivate HMG-CoA lyase [Clinkenbeard, et al., J. Biol. Chem. 250, 3108-3116(1975)].
The dialyzed extract was added to a column of DEAE-52 (Whatman) which had been equilibrated with 0.06 M phosphate buffer (10 mg of protein to 1 ml bed volume of the resin). The DEAE-cellulose was eluted with 0.06 M phosphate buffer until the optical density at 280 nm was essentially zero. This fraction contained the β-ketoacetyl-CoA thiolase activity. The HMG-CoA synthase was eluted from the column with 0.1 M phosphate buffer (pH 7.2) containing 0.5 mM DTT and 0.1 mM EGTA, and was virtually free of all thiolase activity. The protein was precipitated by the addition of ammonium sulfate to give 50% saturation. This solution was stirred for 10 minutes at 4° C. and the precipitate collected by centrifugation at 15,000 rpm for 10 minutes. The supernatant was discarded and the precipitate dissolved in a minimum of 0.06 M phosphate buffer, pH 7.2 (about 10 ml) and the enzyme stored at -80° C.
Enzyme protein (ca. 24 mg) was added to a solution containing […] (pH 8.0), 11.7 μM MgCl2, 1.17 μM Ethylenediaminetetraacetic acid (EDTA), 0.58 μM dithiothreitol, and the indicated concentrations of the test compound (added as a 2 mg/ml solution in dimethylsulfoxide). The incubation took place in a volume of 0.085 ml at 30° in a shaking water bath. After 5 minutes, […] of a solution containing acetoacetyl-CoA and 0.1 μCi of 1-[^14 C]-acetyl-CoA was added to give a final concentrations of 0.1 and 0.4 μM, respectively. The incubation was continued for 10 more minutes and the reaction stopped by the addition of […] of the assay mixture to 0.2 ml of 6N HCl in a glass scintillation vial. The vial was heated for 1 hour at 120° after which time 0.2 ml more of 6N HCl was again added to each vial and the heating continued for another hour. Following this, 1.0 ml of 0.9% saline was added to each vial and finally 10 ml of scintillation liquid. Radioactivity was determined in a Packard Tri-Carb liquid scintillation counter.
Percent inhibition is calculated by the formula: [formula]
IC50 values were determined by plotting the log of the concentration of the test compound verses the percentage inhibition and fitting a straight line to the resulting data by using the least squares method.

SMILES strings stand for the structures.

Consider `C[C@H]1C(=O)O[C@@H]1CCCCCc1ccccc1` (relative stereo) [(CH2)5Ph, E-3-Methyl-4-(5-phenylpentyl)-2-oxetanone], for which the IC50 was determined as 1400 nM.
Under `C[C@H]1C(=O)O[C@@H]1CCCCCCc1ccccc1` (relative stereo) [(CH2)6 Ph, E-3-Methyl-4-(6-phenylhexyl)-2-oxetanone] stands 1500 nM; under `C=CCCCCCCCC[C@@H]1OC(=O)[C@H]1C` (relative stereo) [(CH2)8 CHCH2, E-3-Methyl-4-(9-decenyl)-2-oxetanone], 1600 nM.
Under `C[C@H]1C(=O)O[C@@H]1CCCCCCCCCc1ccccc1` (relative stereo) [(CH2)9 Ph, E-3-methyl-4-(9-phenylnonyl)-2-oxetanone] stands 1200 nM; under `CCCCCCCCCC[C@@H]1OC(=O)[C@H]1C` (relative stereo) [(CH2)9CH3, E-3-Methyl-4-decyl-2-oxetanone], 250 nM.
`CC(CC(C)CCCCC1OC(=O)C1CO)=NNc1ccc(Br)cc1` (stereo not shown) [8-(3-hydroxymethyl-4-oxo-2-oxetanyl)-4-methyl-2-(4-bromophenylhydrazono)-octane] had an IC50 of 800 nM.
Under `CC(=O)CC(C)CCCCC1OC(=O)C1CO` (stereo not shown) [8-(3-hydroxymethyl-4-oxo-2-oxetanyl)-4-methyl-2-octanone] stands 1600 nM.
Regarding `COCC1C(=O)OC1CCCCC(C)CC(C)OC` (stereo not shown) [8-(3-methoxymethyl-4-oxo-2-oxetanyl)-4-methyl-2-methoxyoctane], it took 5500 nM to reach half-maximal inhibition (IC50).
Next, `COCC1C(=O)OC1CCCCC(C)CC(C)=O` (stereo not shown) [8-(3-methoxymethyl-4-oxo-2-oxetanyl)-4-methyl-2-octanone]: 1700 nM; `CC(=CC(=O)O)C1OC1(C)CC(C)CCCCC1OC(=O)C1CO` (stereo not shown) [11-(3-hydroxymethyl-4-oxo-2-oxetanyl)-4,5-oxiranyl-3,5,7-trimethyl-2-undecenoic acid]: 100 nM.
In turn, `COC(=O)C=C(C)C(O)C(C)(O)CC(C)CCCCC1OC(=O)C1CO` (stereo not shown) [methyl 11-(3-hydroxymethyl-4-oxo-2-oxetanyl)-4,5-dihydroxy-3,5,7-trimethyl-2-undecenoate] displayed an IC50 of 1100 nM.
Under `COC(=O)C=C(C)C1OC1(C)CC(C)CCCCC1OC(=O)C1CO` (stereo not shown) [methyl 11-(3-hydroxymethyl-4-oxo-2-oxetanyl)-4,5-oxiranyl-3,5,7-trimethyl-2-undecenoate] stands 80 nM.
`COCC1C(=O)OC1CCCCC(C)CC(C)(O)C(O)C(C)=CC(=O)OC` (stereo not shown) [methyl 11-(3-methoxymethyl-4-oxo-2-oxetanyl)-4,5-dihydroxy-3,5,7-trimethyl-2-undecenoate] gave an IC50 of 1900 nM.
